Assay results as given in ChEMBL document CHEMBL3769324, “Acetophenone derivatives: novel and potent small molecule inhibitors of monoamine oxidase B” (Medchemcomm, 2015).

Legend:
[1] = biological target: T1, Amine oxidase [flavin-containing] B (Homo sapiens, UniProt P27338); experiment: Inhibition of human MAOB using p-tyramine as substrate after 15 mins by Amplex Red MAO assay
T1 sequence (P27338 whole entry): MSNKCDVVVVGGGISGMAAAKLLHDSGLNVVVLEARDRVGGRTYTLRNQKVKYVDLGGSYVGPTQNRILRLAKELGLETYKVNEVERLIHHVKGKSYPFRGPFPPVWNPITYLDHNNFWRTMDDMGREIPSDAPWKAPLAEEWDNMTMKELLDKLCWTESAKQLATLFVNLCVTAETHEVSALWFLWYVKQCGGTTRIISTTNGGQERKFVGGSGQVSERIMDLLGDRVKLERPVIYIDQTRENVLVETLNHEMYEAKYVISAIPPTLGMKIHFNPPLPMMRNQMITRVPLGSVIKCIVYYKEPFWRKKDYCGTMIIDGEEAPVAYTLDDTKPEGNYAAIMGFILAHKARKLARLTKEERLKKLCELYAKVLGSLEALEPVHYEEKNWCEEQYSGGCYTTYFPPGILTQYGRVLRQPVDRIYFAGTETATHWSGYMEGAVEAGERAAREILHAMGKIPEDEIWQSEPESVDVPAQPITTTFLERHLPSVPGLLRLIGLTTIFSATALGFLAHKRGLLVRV

Homo sapiens = species on record: Homo sapiens; experiment: Selectivity index, ratio of IC50 for human MAOA to IC50 for human MAOB
[2] = biological target: T2, Amine oxidase [flavin-containing] A (Homo sapiens, UniProt P21397); experiment: Inhibition of human MAOA using p-tyramine as substrate after 15 mins by Amplex Red MAO assay
T2 sequence (P21397 whole entry): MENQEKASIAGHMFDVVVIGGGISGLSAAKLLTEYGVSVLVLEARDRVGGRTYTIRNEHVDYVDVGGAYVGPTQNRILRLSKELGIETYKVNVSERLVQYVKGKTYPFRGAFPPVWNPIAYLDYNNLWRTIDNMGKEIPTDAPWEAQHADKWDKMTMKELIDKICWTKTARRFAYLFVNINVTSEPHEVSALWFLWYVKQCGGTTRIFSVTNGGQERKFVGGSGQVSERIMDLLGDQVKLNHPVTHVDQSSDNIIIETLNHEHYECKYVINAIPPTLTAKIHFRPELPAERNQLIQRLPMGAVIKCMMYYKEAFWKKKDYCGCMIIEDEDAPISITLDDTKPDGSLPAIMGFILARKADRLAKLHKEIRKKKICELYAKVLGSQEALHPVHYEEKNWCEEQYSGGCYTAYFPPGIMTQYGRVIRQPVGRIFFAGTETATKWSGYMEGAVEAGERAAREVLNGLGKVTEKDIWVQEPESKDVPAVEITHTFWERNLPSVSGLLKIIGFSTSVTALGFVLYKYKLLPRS

[3] = biological target: T2, Amine oxidase [flavin-containing] A; experiment: Inhibition of human MAOA using p-tyramine as substrate at 100 uM after 15 mins by Amplex Red MAO assay; settings: 0.25 h
[4] = biological target: T2, Amine oxidase [flavin-containing] A; experiment: Inhibition of MAOA (unknown origin)
[5] = biological target: T1, Amine oxidase [flavin-containing] B; experiment: Inhibition of MAOB (unknown origin)
[6] = biological target: T1, Amine oxidase [flavin-containing] B; experiment: Reversible inhibition of human MAOB using p-tyramine as substrate preincubated for 60 mins
[7] = biological target: T1, Amine oxidase [flavin-containing] B; experiment: Competitive inhibition of human MAOB using 50 to 500 uM of p-tyramine as substrate up to 20 nM by Lineweaver-Burk plot analysis
SH-SY5Y = experiment: Neurotoxicity against human SH-SY5Y cells assessed as cell viability at 3 to 50 uM after 48 hrs by MTT assay; type: toxicity, cell-based

Compound	IC50 [1] [nM]	Ratio IC50 (Homo sapiens)	inhibition at 100 µM [3] [%]	other results
CC(=O)c1ccc(OCc2ccc(F)c(F)c2)cc1	67.9	1150	–	IC50 [2]: 78300 nM
CC(=O)c1cccc(OCc2cccc(Cl)c2)c1	34.2	1370	–	IC50 [2]: 46800 nM
CC(=O)c1ccc(OCc2cccc(C)c2)cc1	86.3	> 1160	32.3	–
CC(=O)c1cccc(OCc2cccc(Br)c2)c1	96.3	> 1040	49.1	–
CC(=O)c1cccc(OCc2cccc(C)c2)c1	893	> 112	31.1	–
CC(=O)c1ccc(OCc2ccc(C(F)(F)F)cc2)cc1	77.8	> 1280	26.4	–
C#CCNCc1cc2cc(OCc3ccccc3)ccc2[nH]1	–	–	–	IC50 [4]: 790 nM; IC50 [5]: 11 nM
CC(=O)c1ccc(OCc2cccc(Br)c2)cc1	214	> 467	48.3	–
CC(=O)c1ccc(OCc2ccc(Br)cc2)cc1	85.6	> 1170	23.2	–
CC(=O)c1ccc(OCc2ccc([N+](=O)[O-])cc2)cc1	96.5	> 1040	33.8	–
CC(=O)c1ccc(OCc2ccccc2)cc1	110	> 909	8.19	–
CC(=O)c1cccc(OCc2cccc(C(F)(F)F)c2)c1	21.2	> 4720	46.7	inhibition (INH) [6]: Active
CC(=O)c1ccc(OCc2ccc(Br)cc2)cc1O	–	–	–	IC50 [4]: 15800 nM; IC50 [5]: 4 nM
C[C@H](NCc1ccc(OCc2cccc(F)c2)cc1)C(N)=O [SAFINAMIDE]	–	–	9.74	–
CC(=O)c1ccc(OCc2ccccc2Cl)cc1	311	288	–	IC50 [2]: 89600 nM
CC(=O)c1ccc(OCc2cccc(F)c2)cc1	83.1	> 1200	48.4	–
CC(=O)c1ccc(OCc2cccc(C(F)(F)F)c2)cc1	58.2	> 1720	48.9	–
CC(=O)c1ccc(OCc2ccccc2[N+](=O)[O-])cc1	284	> 352	34	inhibition (INH) [6]: Active
CC(=O)c1cccc(OCc2ccc([N+](=O)[O-])cc2)c1	75.4	1180	–	IC50 [2]: 88300 nM
CC(=O)c1ccc(OCc2ccc(F)cc2)cc1	–	–	43.5	Activity [7]: Active; Activity (SH-SY5Y): Non-toxic

Compound	IC50 [1] [nM]	Ratio IC50 (Homo sapiens)	inhibition at 100 µM [3] [%]	other results
CC(=O)c1ccc(OCc2cccc([N+](=O)[O-])c2)cc1	104	493	–	IC50 [2]: 51300 nM
CC(=O)c1ccc(OCc2ccc(C)cc2)cc1	102	> 980	5.96	–
CC(=O)c1cccc(OCc2ccc(Cl)cc2)c1	–	–	–	Activity [7]: Active; Activity (SH-SY5Y): Non-toxic; IC50 [2]: 39700 nM
CC(=O)c1cccc(OCc2ccc(C)cc2)c1	140	> 714	23	–
CC(=O)c1ccc(OCc2ccccc2C)cc1	77.1	> 1300	42.9	–
O=C1CCCc2cc(OCc3ccc(I)cc3)ccc21	–	–	–	IC50 [4]: 1290 nM; IC50 [5]: 4.5 nM
CC(=O)c1cccc(OCc2cccc([N+](=O)[O-])c2)c1	114	> 877	17.8	–
CC(=O)c1cccc(OCc2cccc(F)c2)c1	193	> 518	31	–
O=C1CCc2ccc(OCc3ccc(Br)cc3)cc2N1	–	–	–	IC50 [4]: 7980 nM; IC50 [5]: 2.9 nM
CC(=O)c1ccc(OCc2cccc(Cl)c2)cc1	–	–	–	IC50 [2]: 83300 nM
CC(=O)c1cccc(OCc2ccccc2)c1	1950	> 51.3	31	–
CC(=O)c1ccc(OCc2ccccc2C(F)(F)F)cc1	183	385	–	IC50 [2]: 70500 nM
CC(=O)c1ccc(OCc2ccccc2F)cc1	56.9	> 1760	47.1	–
CC(=O)c1ccc(OCc2ccc(F)cc2F)cc1	27.3	> 3660	45.7	–
CC(=O)c1ccc(OCc2cc(F)c(F)c(F)c2)cc1	84.1	> 1190	44.3	–
CC(=O)c1cccc(OCc2ccc(Br)cc2)c1	–	–	–	IC50 [2]: 48700 nM
CC(=O)c1cccc(OCc2ccc(F)cc2)c1	86.4	> 1160	49.6	–
CC(=O)c1cccc(OCc2ccc(C(F)(F)F)cc2)c1	43.2	> 2320	27.2	–
CC(=O)c1ccc(OCc2ccc(Cl)cc2)cc1	63.2	1480	–	IC50 [2]: 93600 nM
